Source: patent US20130217664A1, “NOVEL COMPOUNDS USEFUL FOR THE TREATMENT OF DEGENERATIVE AND INFLAMMATORY DISEASES” (priority 2012, published 2013)

Key:
BA/F3 cell line = assay: BA/F3 viability assay; settings: Mus musculus, BaF3, 48 h, read-out: BA/F3 IC50
human TYK2 = target: T1, human TYK2 (Homo sapiens, UniProt P29597); assay: TYK2 inhibition assay; format: biochemical; settings: recombinant human TYK2 catalytic domain, polyGT substrate
T1 construct: catalytic domain (amino acids 871-1187; catalog number 08-147); purchased Carna Biosciences 08-147
T1 sequence (P29597 871-1187): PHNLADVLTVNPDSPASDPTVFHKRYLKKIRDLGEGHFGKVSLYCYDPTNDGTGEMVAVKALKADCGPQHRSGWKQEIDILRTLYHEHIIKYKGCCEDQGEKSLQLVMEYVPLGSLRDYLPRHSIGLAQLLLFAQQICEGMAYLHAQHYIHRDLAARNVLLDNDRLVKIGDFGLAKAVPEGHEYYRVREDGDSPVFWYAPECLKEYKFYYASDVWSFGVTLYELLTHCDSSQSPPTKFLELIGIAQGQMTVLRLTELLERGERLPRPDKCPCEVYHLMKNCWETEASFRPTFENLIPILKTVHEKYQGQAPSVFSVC
Outline: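 Radiometric kinase reaction run 90 min at 30 °C, stopped with phosphoric acid, washed and scintillation-counted.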

CTLL-2 cell line = assay: CTLL2 viability assay; format: cell-based; settings: Mus musculus, IL-2 dependent CTLL2 viability, 24 h, ATP-lite
Text: The protocol describes the methods to analyse the activity of compounds on their ability to sustain the IL2-dependent viability of CTLL2.
Final DMSO concentration was 0.1%.

human JAK2 = target: T2, human JAK2 (Homo sapiens, UniProt O60674); assay: JAK2 inhibition assay (polyGT substrate / Ulight-JAK1 peptide); format: biochemical; settings: recombinant human JAK2 catalytic domain; polyGT or Ulight-JAK1 peptide assay
T2 construct: catalytic domain (amino acids 808-1132; catalog number PV4210); GST; purchased Invitrogen PV4210
Outline: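 Two JAK2 formats: a ^33P-ATP polyGT assay (1 μM cold ATP, 90 min, 30° C., cpm read-out) and a Ulight-JAK1 peptide assay read by Europium-anti-phosphotyrosine fluorescence after 60 min at room temperature.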

T2 sequence (O60674 808-1132): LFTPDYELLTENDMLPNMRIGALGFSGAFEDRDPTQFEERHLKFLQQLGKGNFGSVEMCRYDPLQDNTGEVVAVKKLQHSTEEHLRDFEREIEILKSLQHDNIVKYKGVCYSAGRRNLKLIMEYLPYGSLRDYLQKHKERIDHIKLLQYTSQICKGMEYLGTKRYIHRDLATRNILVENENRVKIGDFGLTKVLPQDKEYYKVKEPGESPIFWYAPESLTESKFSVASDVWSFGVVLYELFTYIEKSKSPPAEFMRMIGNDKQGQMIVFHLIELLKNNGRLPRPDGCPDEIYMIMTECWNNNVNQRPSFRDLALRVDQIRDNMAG

Compound	IC50 (BA/F3 cell line)	IC50 (human TYK2)	IC50 (human JAK2)	IC50 (CTLL-2 cell line)
CCc1cc(CNS(=O)(=O)C(F)F)c(F)cc1N(C)c1cc2c(cn1)ncn2C [Compound 327, N-{5-Ethyl-2-fluoro-4-[methyl-(1-methyl-M-imidazo[4,5-c]pyridin-6-yl)-amino]-benzyl}-C,C-difluoro-methanesulfonamide]	1000 to 5000 nM	0.01 to 100 nM	0.01 to 100 nM	501 to 1000 nM
CCc1cc(C2CN(S(C)(=O)=O)C2)ncc1N(C)c1cc2c(cn1)ncn2C [Compound 328, [4-Ethyl-6-(1-methanesulfonyl-azetidin-3-yl)-pyridin-3-yl]-methyl-(1-methyl-1H-imidazo[4,5-c]pyridin-6-yl)-amine]	> 5000 nM	501 to 1000 nM	101 to 500 nM	> 1000 nM
CCc1cc(C2CN(S(=O)(=O)C(F)F)C2)ncc1N(C)c1cc2c(cn1)ncn2C [Compound 329, {6-[1-(Difluoro-methanesulfonyl)-azetidin-3-yl]-4-ethyl-pyridin-3-yl}-methyl-(1-methyl-1H-imidazo[4,5-c]pyridin-6-yl)-amine]	> 5000 nM	> 1000 nM	0.01 to 100 nM	501 to 1000 nM
CCc1cc(C2CN(C(=O)C(F)F)C2)ncc1N(C)c1cc2c(cn1)ncn2C [Compound 333, 1-(3-{4-Ethyl-5-[methyl-(1-methyl-1H-imidazo[4,5-c]pyridin-6-yl)-amino]-pyridin-2-yl}-azetidin-1-yl)-2,2-difluoro-ethanone]	> 5000 nM	501 to 1000 nM	101 to 500 nM	> 1000 nM
CCc1cc(C2CN(C(=O)C(F)(F)F)C2)ncc1N(C)c1cc2c(cn1)ncn2C [Compound 334, 1-(3-{4-Ethyl-5-[methyl-(1-methyl-1H-imidazo[4,5-c]pyridin-6-yl)-amino]-pyridin-2-yl}-azetidin-1-yl)-2,2,2-trifluoro-ethanone]	> 5000 nM	501 to 1000 nM	0.01 to 100 nM	> 1000 nM

Continued, in another order:

IC50 (BA/F3 cell line)	IC50 (human TYK2)	IC50 (human JAK2)	Compound	IC50 (CTLL-2 cell line)
1000 to 5000 nM	0.01 to 100 nM	0.01 to 100 nM	CCc1cc(CN(C)S(C)(=O)=O)c(F)cc1N(C)c1cc2c(cn1)ncn2C [Compound 319, N-{5-Ethyl-2-fluoro-4-[methyl-(1-methyl-1H-imidazo[4,5-c]pyridin-6-yl)-amino]-benzyl}-N-methyl-methanesulfonamide]	> 1000 nM
> 5000 nM	0.01 to 100 nM	0.01 to 100 nM	CCc1cc(CNS(C)(=O)=O)cc(F)c1N(C)c1cc2c(cn1)ncn2C [Compound 323, N-{3-Ethyl-5-fluoro-4-[methyl-(1-methyl-1H-imidazo[4,5-c]pyridin-6-yl)-amino]-benzyl}-methanesulfonamide]	> 1000 nM
> 5000 nM	101 to 500 nM	0.01 to 100 nM	CCc1cc(CNS(C)(=O)=O)c(F)cc1N(C)c1cc2c(cn1)ncn2C [Compound 325, N-{5-Ethyl-2-fluoro-4-[methyl-(1-methyl-1H-imidazo[4,5-c]pyridin-6-yl)-amino]-benzyl}-methanesulfonamide]	> 1000 nM
